In ChEMBL document CHEMBL1148819, “Structure, derivatization, and antitumor activity of new griseusins from Nocardiopsis sp” (J Med Chem, 2007):

Key:
[1] = Cytotoxicity against MEXF514L cells after 4 days by monolayer assay; format: functional, cell-based; settings: Homo sapiens, MEXF 514L, 96 h
[2] = Cytotoxicity against MEXF520L cells after 4 days by monolayer assay; format: functional, cell-based; settings: Homo sapiens, MEXF 520L, 96 h
RXF 393 [3] = test: Cytotoxicity against RXF393NL cells after 4 days by monolayer assay; format: functional, cell-based; settings: Homo sapiens, RXF 393NL, 96 h
[4] = Cytotoxicity against RXF468L cells after 4 days by monolayer assay; format: functional, cell-based; settings: Homo sapiens, 96 h
[5] = Cytotoxicity against RXF944L cells after 4 days by monolayer assay; format: functional, cell-based; settings: Homo sapiens, RXF 944L, 96 h
[6] = Cytotoxicity against BXF1218L cells after 4 days by monolayer assay; format: functional, cell-based; settings: Homo sapiens, BXF 1218L, 96 h
[7] = Cytotoxicity against PRXF22Rv1 cells after 4 days by monolayer assay; format: functional, cell-based; settings: Homo sapiens, 96 h
[8] = Cytotoxicity against MAXF1162 cells after 2 to 7 days by clonogenic assay; format: functional, cell-based; settings: Homo sapiens
[9] = Cytotoxicity against MAXF583 cells after 2 to 7 days by clonogenic assay; format: functional, cell-based; settings: Homo sapiens
[10] = Cytotoxicity against MEXF535 cells after 2 to 7 days by clonogenic assay; format: functional, cell-based; settings: Homo sapiens
MEXF989 = test: Cytotoxicity against MEXF989 cells after 2 to 7 days by clonogenic assay; format: functional, cell-based; settings: Homo sapiens, MEXF 989
MDA-MB-231 = test: Cytotoxicity against MDA-MB-231 cells after 4 days by monolayer assay; format: functional, cell-based; settings: Homo sapiens, MDA-MB-231, 96 h
MDA-MB-468 = test: Cytotoxicity against MDA-MB-468 cells after 4 days by monolayer assay; format: functional, cell-based; settings: Homo sapiens, MDA-MB-468, 96 h
MCF7 = test: Cytotoxicity against MCF7 cells after 4 days by monolayer assay; format: functional, cell-based; settings: Homo sapiens, MCF7, 96 h
[11] = Cytotoxicity against MAXF401 cells after 4 days by monolayer assay; format: functional, cell-based; settings: Homo sapiens, MAXF401, 96 h
MEXF276L = test: Cytotoxicity against MEXF276L cells after 4 days by monolayer assay; format: functional, cell-based; settings: Homo sapiens, 96 h
[12] = Cytotoxicity against MEXF394NL cells after 4 days by monolayer assay; format: functional, cell-based; settings: Homo sapiens, MEXF 394NL, 96 h
[13] = Cytotoxicity against MEXF462NL cells after 4 days by monolayer assay; format: functional, cell-based; settings: Homo sapiens, MEXF 462NL, 96 h
RXF 393 [14] = test: Cytotoxicity against RXF393 cells after 2 to 7 days by clonogenic assay; format: functional, cell-based; settings: Homo sapiens
[15] = Cytotoxicity against RXF944LX cells after 2 to 7 days by clonogenic assay; format: functional, cell-based; settings: Homo sapiens, RXF 944LX
[16] = Cytotoxicity against CXF1103 cells after 2 to 7 days by clonogenic assay; format: functional, cell-based; settings: Homo sapiens
[17] = Cytotoxicity against CXF158 cells after 2 to 7 days by clonogenic assay; format: functional, cell-based; settings: Homo sapiens
[18] = Cytotoxicity against CXF264 cells after 2 to 7 days by clonogenic assay; format: functional, cell-based; settings: Homo sapiens
PAXF546 = test: Cytotoxicity against PAXF546 cells after 2 to 7 days by clonogenic assay; format: functional, cell-based; settings: Homo sapiens
PAXF736 = test: Cytotoxicity against PAXF736 cells after 2 to 7 days by clonogenic assay; format: functional, cell-based; settings: Homo sapiens
CCRF-CEM = test: Cytotoxicity against CCRF-CEM cells after 2 to 7 days by clonogenic assay; format: functional, cell-based; settings: Homo sapiens
[19] = Cytotoxicity against human umbilical cord hematopoietic stem cells after 12 days by clonogenic assay; format: cell-based; settings: 288 h
[20] = Cytotoxicity against LXF-1121L cells after 4 days by monolayer assay; format: functional, cell-based; settings: Homo sapiens, 96 h

Compound: C[C@@H]1CC(=O)[C@@H](O)[C@]2(O1)O[C@@H]1CC(=O)O[C@@H]1C1=C2C(=O)c2c(O)cccc2C1=O
- IC50 [1]: 87 nM
- IC50 [2]: 87 nM
- IC50 (RXF 393 [3]): 95 nM
- IC50 [4]: 95 nM
- IC50 [5]: 95 nM
- IC50 [6]: 140 nM
- IC50 [7]: 177 nM
- IC50 [8]: 455 nM
- IC50 [9]: 195 nM
- IC50 [10]: 137 nM
- IC50 (MEXF989): 295 nM
- IC50 (MDA-MB-231): 150 nM
- IC50 (MDA-MB-468): 150 nM
- IC50 (MCF7): 150 nM
- IC50 [11]: 150 nM
- IC50 (MEXF276L): 87 nM
- IC50 [12]: 87 nM
- IC50 [13]: 87 nM
- IC50 (RXF 393 [14]): 375 nM
- IC50 [15]: 290 nM
- IC50 [16]: 257 nM
- IC50 [17]: 257 nM
- IC50 [18]: 257 nM
- IC50 (PAXF546): 420 nM
- IC50 (PAXF736): 614 nM
- IC50 (CCRF-CEM): 132 nM
- IC50 [19]: 1190 nM
- IC50 [20]: 207 nM
